Literature values, collected in the PKSmart pharmacokinetics tables (Seal et al. 2025).

How the values were obtained:
[1] = Lombardo et al. 2013, J Clin Pharmacol 53:178, doi 10.1177/0091270012440282; details: for Vd / clearance: in vivo, iv; for fraction unbound: plasma
[2] = Lombardo, Berellini, Obach 2018, Drug Metab Dispos 46:1466, doi 10.1124/dmd.118.082966; details: human; for MRT / Vd / clearance / half-life: in vivo, iv; for fraction unbound: plasma

Compound | Vd ([1]; dog) [L/kg] | clearance ([1]; dog) [mL/min/kg] | MRT [2] [h] | Vd [2] [L/kg] | clearance [2] [mL/min/kg] | fraction unbound [2] | fraction unbound ([1]; dog) | Vd ([1]; rat) [L/kg] | clearance ([1]; rat) [mL/min/kg] | half-life [2] [h] | Vd ([1]; monkey) [L/kg] | clearance ([1]; monkey) [mL/min/kg] | fraction unbound ([1]; monkey) | fraction unbound ([1]; rat)
CC[C@H](OC(C)=O)C(C[C@H](C)N(C)C)(c1ccccc1)c1ccccc1 | 5.9 | 28 | 26 | 8.3 | 5.4 | 0.2 | – | – | – | – | – | – | – | –
Cc1ncc([N+](=O)[O-])n1CCO | 0.1 | 2.5 | 7.8 | 0.4 | 0.85 | – | 0.983 | 1.2 | 5.8 | 7.1 | – | – | – | –
CN(C)CCCC1(c2ccc(F)cc2)OCc2cc(C#N)ccc21 (stereo not drawn) | 10 | 14 | 47 | – | 4.3 | – | 0.444 | 21 | 82 | 33 | 10 | 40 | 0.399 | 0.26
COC(=O)C1=C(C)NC(C)=C(C(=O)OCCN(C)Cc2ccccc2)C1c1cccc([N+](=O)[O-])c1 (stereo not drawn) | 2.39 | – | 1.5 | 1 | – | – | 0.062 | 1.9 | – | 4.1 | 1.23 | – | 0.06 | 0.084
C[C@@H]1CCC[C@H](C)N1CCCC(O)(c1ccccc1)c1ccccn1 (stereo partly drawn) | 2.1 | 8.3 | 13 | 1.4 | 1.8 | – | 0.492 | 2.6 | 62 | 8.4 | 0.87 | 4.92 | 0.42 | 0.49
CCC(C)C(=O)O[C@H]1C[C@H](O)C=C2C=C[C@H](C)[C@H](CC[C@@H](O)C[C@@H](O)CC(=O)O)[C@H]21 (stereo partly drawn) | – | – | – | 0.46 | 14 | – | – | 0.19 | 36 | 0.78 | – | – | – | 0.33
CC(=O)CCCCn1c(=O)c2c(ncn2C)n(C)c1=O | 1.01 | 37 | 0.77 | 1.8 | 39 | 0.51 | 0.425 | 0.1 | 7.28 | 1.2 | – | – | – | 0.76
Cc1cccnc1NS(=O)(=O)c1ccc(C#Cc2ccc(O)c(C(=O)O)c2)cc1 | 0.19 | 20 | 23.8 | 0.1 | 0.07 | 0.0019 | 0.01 | 1.2 | 62 | 16 | 0.08 | 1.9 | 0.003 | 0.0033
CC(C)(C)NCC(O)c1cc(O)cc(O)c1 (stereo not drawn) | – | – | 7.4 | 1.5 | 3.4 | – | – | 3.3 | 60 | 15 | – | – | – | –
CN1CCc2cccc3c2[C@H]1Cc1ccc(O)c(O)c1-3 | – | – | 0.67 | 1.6 | 40 | 0.05 | – | – | – | – | – | – | – | 0.1
O=C(NCC1CCCCN1)c1cc(OCC(F)(F)F)ccc1OCC(F)(F)F (stereo not drawn) | 1.1 | – | 21 | 6.1 | – | – | 0.3 | 6.9 | – | 12 | – | – | – | –
COc1cccc2c1C(=O)c1c(O)c3c(c(O)c1C2=O)C[C@@](O)(C(=O)CO)C[C@@H]3O[C@H]1C[C@H](N)[C@@H](O)[C@H](C)O1 | 71.9 | – | 38 | 45 | 20 | – | 0.808 | 0.17 | 25.9 | 36 | – | – | – | –
CCN(CC)C(=O)/C(C#N)=C/c1cc(O)c(O)c([N+](=O)[O-])c1 | – | – | 0.38 | 0.27 | 12 | – | – | 0.24 | 10.8 | – | – | – | – | –
Cc1nc2sccn2c(=O)c1CCN1CCC(=C(c2ccc(F)cc2)c2ccc(F)cc2)CC1 | – | – | 46.1 | 1.41 | 0.51 | 0.008 | – | 8 | 26.7 | 40 | – | – | – | 0.015
CC(C)(C)NC(=O)C1C[C@@H]2CCCC[C@@H]2CN1C[C@@H](O)[C@H](Cc1ccccc1)NC(=O)C(CC(N)=O)NC(=O)c1ccc2ccccc2n1 (stereo partly drawn) | – | – | 4.6 | 3.6 | – | – | – | 3 | – | 13 | – | – | – | 0.007
COC(=O)C1=C(C)NC(C)=C(C(=O)OCC(C)C)C1c1ccccc1[N+](=O)[O-] (stereo not drawn) | 4.1 | 37.2 | 6.5 | 5.5 | 15 | – | 0.028 | 0.89 | 45.8 | 11 | – | – | – | –
COc1cccc([C@@]2(O)CCCC[C@@H]2CN(C)C)c1 | 3.01 | 54.6 | 7.2 | 2.8 | 6.5 | – | 0.745 | 3.86 | 63.5 | 5.8 | – | – | – | 0.75
CCC1(c2cccc(O)c2)CCCCN(C)C1 (stereo not drawn) | – | – | 2 | 3.3 | 28 | 0.73 | – | 4.4 | 58.4 | 1.7 | – | – | – | –
CC1(C)S[C@@H]2C(NC(=O)C(NC(=O)N3CCN(S(C)(=O)=O)C3=O)c3ccccc3)C(=O)N2C1C(=O)O (stereo partly drawn) | – | – | 0.71 | 0.09 | 2.1 | 0.7 | – | 0.3 | 50 | 1.2 | – | – | – | 0.65
O=C(O)P(=O)(O)O | 0.65 | 3.62 | – | 0.5 | 2.1 | – | – | – | – | 4.7 | – | – | – | –
Cc1ccsc1C(=CCCN1CCCC(C(=O)O)C1)c1sccc1C (stereo not drawn) | – | – | 12 | 1.1 | 1.6 | – | – | 2.05 | 89 | 10 | – | – | – | –
NC12CC3CC(CC(C3)C1)C2 | – | – | 23 | 6.6 | 4.8 | – | – | 6.4 | 19 | 16 | – | – | – | 0.52
C[C@H]1NCc2cc(-c3ccc4c(=O)c(C(=O)O)cn(C5CC5)c4c3OC(F)F)ccc21 | 1.29 | 2.43 | 13.7 | 1 | 1.23 | 0.25 | 0.23 | 0.9 | 12.1 | – | 0.96 | 3.39 | 0.19 | 0.13
Cc1nnc2n1-c1sc(Br)cc1C(c1ccccc1Cl)=NC2 | 6.1 | 11 | 6 | 0.75 | 2 | 0.092 | – | 3 | 23 | 4.8 | 6.5 | 13 | – | 0.22
CNS(=O)(=O)Cc1ccc2[nH]cc(CCN(C)C)c2c1 | 1.74 | 13.9 | 1.5 | 1.7 | 19 | – | 0.86 | 1.15 | 28 | 1.7 | – | – | – | 0.85
CC(CC(c1ccccc1)c1ccccc1)NC(C)(C)C (stereo not drawn) | – | 41 | 81 | 5.1 | 1.1 | – | 0.14 | – | – | 56 | – | – | – | –
Cc1cn([C@H]2C=C[C@@H](CO)O2)c(=O)[nH]c1=O | – | – | 1.4 | 0.67 | 8.2 | 1 | 0.9 | 1.09 | 20.2 | 1.4 | 0.8 | 9.4 | 0.9 | 0.9
